According to paper PMC4410182 (Nature communications, 2015):

Legend:
[1] = biological target: T1, A. borkumensis YdaH (Alcanivorax borkumensis, UniProt Q0VR69); experiment: isothermal titration calorimetry; assay type: binding
T1 sequence (Q0VR69 1-492): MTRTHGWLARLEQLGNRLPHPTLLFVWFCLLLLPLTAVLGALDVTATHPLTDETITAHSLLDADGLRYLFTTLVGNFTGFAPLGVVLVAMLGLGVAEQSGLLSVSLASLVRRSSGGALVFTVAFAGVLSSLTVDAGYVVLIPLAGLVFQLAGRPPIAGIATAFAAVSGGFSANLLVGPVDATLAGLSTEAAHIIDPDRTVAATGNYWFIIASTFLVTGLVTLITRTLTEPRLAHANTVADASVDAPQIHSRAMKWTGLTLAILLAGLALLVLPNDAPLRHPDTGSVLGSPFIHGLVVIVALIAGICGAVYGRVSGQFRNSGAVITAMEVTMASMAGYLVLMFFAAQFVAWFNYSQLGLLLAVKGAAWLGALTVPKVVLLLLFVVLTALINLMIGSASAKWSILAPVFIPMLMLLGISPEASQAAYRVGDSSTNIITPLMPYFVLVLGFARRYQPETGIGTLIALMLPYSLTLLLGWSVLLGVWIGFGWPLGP

[2] = biological target: A. borkumensis YdaH transporter (Alcanivorax borkumensis) (UniProt Q0VR69); experiment: SEC

Compound | Kd [1] [nM] | stoichiometry N [2]
Nc1ccc(S(=O)(=O)Nc2ncccn2)cc1 [sulfadiazine] | 7040 ± 540 | –
Cc1cc(C)nc(NS(=O)(=O)c2ccc(N)cc2)n1 [sulfamethazine] | 410 ± 30 | –
Nc1ccc(S(=O)(=O)Nc2nccs2)cc1 [sulfathiazole] | 600 ± 20 | –
A. borkumensis YdaH transporter (from UniProt Q0VR69 1-492) (natural protein) | – | 2
